Laboratory results as given in patent US20150329515A1, “COMPOSITION AND METHOD FOR TREATING OR PREVENTING INFLUENZA VIRUS INFECTION” (National Defense Medical Center, priority 2014, published 2015).
Where two headings read alike, the source gives them in different places.

Tests used:
[1] = test system: Tamiflu-resistant 2009 pandemic influenza A (H1N1) virus (H275Y mutation in neuraminidase); conditions: for SI (selective index = CC50/EC50), H1N1 Tamiflu-resistant: dog
[2] = test system: Tamiflu-resistant 2009 pandemic influenza A (H1N1) virus (H275Y mutation in neuraminidase); test: in vitro; conditions: dog, SI (selective index = CC50/EC50)
in vitro = conditions: dog, CC50 (μM)
[3] = test system: Madin-Darby canine kidney (MDCK) cells
H1N1 influenza virus = test: In vitro anti-H1N1 influenza virus activity (oseltamivir footnote); type: cell-based
[4] = read-out: EC50 (μM), H1N1 Tamiflu-resistant
[5] = read-out: EC50 (μM), H1N1 Tamiflu-resistant virus

Row | SMILES | EC50 [1, 4] [µM] | selectivity ratio ([2]; H1N1 Tamiflu-resistant) | CC50 (in vitro) [µM] | EC50 [1, 5] [µM] | CC50 [3] [µM] | other results
1 | O=c1cc(-c2ccccc2)oc2cc(O)c(O)c(O)c12 [Baicalein, reference compound] | 46.2 | > 6.5 | > 300 | – | – | selectivity ratio ([2]; H1N1 Tamiflu-resistant virus): > 3.3
2 | O=C(O)[C@H]1O[C@@H](Oc2cc3oc(-c4ccccc4)cc(=O)c3c(O)c2O)[C@H](O)[C@@H](O)[C@@H]1O [Baicalin, reference compound] | 69.3 | > 4.3 | > 300 | – | – | –
3 | COc1cc2oc(-c3ccccc3Br)cc(=O)c2c(OC)c1OC [Compound 2k, 2-(2-Bromophenyl)-5,6,7-trimethoxy-4H-chromen-4-one] | 16 | 8 | 128 | – | – | –
4 | COc1cc2oc(-c3cccc(Br)c3)cc(=O)c2c(OC)c1OC [Compound 2l, 2-(3-Bromophenyl)-5,6,7-trimethoxy-4H-chromen-4-one] | 4 | > 8 | 32.1 | – | – | –
5 | COc1cc2oc(-c3ccc(Br)cc3)cc(=O)c2c(OC)c1OC [Compound 2m, 2-(4-Bromophenyl)-5,6,7-trimethoxy-4H-chromen-4-one] | 192 | 0.7 | 128 | – | – | –
6 | O=c1cc(-c2ccccc2)oc2cc(O)c(O)c(O)c12 [Compound 3a] | – | – | – | 92.3 | > 300 | –
7 | O=c1cc(-c2ccccc2Cl)oc2cc(O)c(O)c(O)c12 [Compound 3b] | – | – | – | 10.2 | > 300 | –
8 | O=c1cc(-c2cccc(Cl)c2)oc2cc(O)c(O)c(O)c12 [Compound 3c] | – | – | – | 50 | > 300 | SI (selective index = CC50/EC50), H1N1 Tamiflu-resistant virus [1]: >6.0
9 | O=c1cc(-c2ccc(Cl)cc2)oc2cc(O)c(O)c(O)c12 [Compound 3d] | – | – | – | 10.2 | > 300 | –
10 | O=c1cc(-c2ccc(Cl)cc2Cl)oc2cc(O)c(O)c(O)c12 [Compound 3e] | – | – | – | 73.7 | > 300 | SI (selective index = CC50/EC50), H1N1 Tamiflu-resistant virus [1]: >4.1
11 | O=c1cc(-c2ccc(F)c(Br)c2)oc2cc(O)c(O)c(O)c12 [Compound 3g] | – | – | – | 204 | > 300 | SI (selective index = CC50/EC50), H1N1 Tamiflu-resistant virus [1]: >1.5
12 | O=C(O)c1ccc(-c2cc(=O)c3c(O)c(O)c(O)cc3o2)cc1 [Compound 3h] | – | – | – | 39.7 | > 300 | SI (selective index = CC50/EC50), H1N1 Tamiflu-resistant virus [1]: >7.6
13 | O=c1cc(-c2ccc(-c3ccccc3)cc2)oc2cc(O)c(O)c(O)c12 [Compound 3i] | – | – | – | 72 | > 300 | SI (selective index = CC50/EC50), H1N1 Tamiflu-resistant virus [1]: >4.2
14 | O=c1cc(-c2ccc([N+](=O)[O-])cc2)oc2cc(O)c(O)c(O)c12 [Compound 3j] | – | – | – | 18.1 | > 300 | SI (selective index = CC50/EC50), H1N1 Tamiflu-resistant virus [1]: >16.6
15 | COc1cc2oc(-c3ccccc3Br)cc(=O)c2c(O)c1OC [Compound 4a, 2-(2-Bromophenyl)-5-hydroxy-6,7-dimethoxy-4H-chromen-4-one] | 16.1 | 8.3 | 133 | – | – | –
16 | COc1cc2oc(-c3cccc(Br)c3)cc(=O)c2c(O)c1OC [Compound 4b, 2-(3-Bromophenyl)-5-hydroxy-6,7-dimethoxy-4H-chromen-4-one] | 4.2 | > 15.8 | 66.5 | – | – | –
17 | COc1cc2oc(-c3ccc(Br)cc3)cc(=O)c2c(O)c1OC [Compound 4c, 2-(4-Bromophenyl)-5-hydroxy-6,7-dimethoxy-4H-chromen-4-one] | 4.2 | > 66.7 | > 300 | – | – | SI (selective index = CC50/EC50), H1N1 Tamiflu-resistant [1]: >71.4
18 | COc1c(O)cc2oc(-c3ccccc3Br)cc(=O)c2c1O [Compound 5a, 2-(2-Bromophenyl)-5,7-dihydroxy-6-methoxy-4H-chromen-4-one] | 8.6 | > 34.9 | > 300 | – | – | –
19 | COc1c(O)cc2oc(-c3cccc(Br)c3)cc(=O)c2c1O [Compound 5b, 2-(3-Bromophenyl)-5,7-dihydroxy-6-methoxy-4H-chromen-4-one] | 4.3 | > 66.7 | > 300 | – | – | SI (selective index = CC50/EC50), H1N1 Tamiflu-resistant [1]: >69.8
20 | COc1c(O)cc2oc(-c3ccc(Br)cc3)cc(=O)c2c1O [Compound 5c, 2-(4-Bromophenyl)-5,7-dihydroxy-6-methoxy-4H-chromen-4-one] | 4.3 | > 66.7 | > 300 | – | – | SI (selective index = CC50/EC50), H1N1 Tamiflu-resistant [1]: >70.0
21 | O=c1cc(-c2ccccc2Br)oc2cc(O)c(O)c(O)c12 [Compound 6a, 2-(2-Bromophenyl)-5,6,7-trihydroxy-4H-chromen-4-one] | 9 | > 33.3 | > 300 | 9 | – | selectivity ratio ([2]; H1N1 Tamiflu-resistant virus): > 33.3
22 | O=c1cc(-c2cccc(Br)c2)oc2cc(O)c(O)c(O)c12 [Compound 6b, 2-(3-Bromophenyl)-5,6,7-trihydroxy-4H-chromen-4-one] | 4.5 | > 66.7 | > 300 | 4.5 | – | SI (selective index = CC50/EC50), H1N1 Tamiflu-resistant [1]: >66.7; selectivity ratio ([2]; H1N1 Tamiflu-resistant virus): > 66.7
23 | O=c1cc(-c2ccc(Br)cc2)oc2cc(O)c(O)c(O)c12 [Compound 6c, 2-(4-Bromophenyl)-5,6,7-trihydroxy-4H-chromen-4-one] | 4.5 | > 66.7 | > 300 | 4.5 | – | SI (selective index = CC50/EC50), H1N1 Tamiflu-resistant [1]: >66.7; selectivity ratio ([2]; H1N1 Tamiflu-resistant virus): > 66.7
24 | NC(=O)c1ncn([C@@H]2O[C@H](CO)[C@@H](O)[C@H]2O)n1 [Ribavirin, reference compound] | 25.6 | > 11.7 | > 300 | 25.6 | – | selectivity ratio ([2]; H1N1 Tamiflu-resistant virus): > 11.7
25 | CCOC(=O)C1=C[C@@H](OC(CC)CC)[C@H](NC(C)=O)[C@@H](N)C1 [oseltamivir, reference compound] | – | – | – | – | – | EC50 (H1N1 influenza virus): 32 µM; activity against H1N1 Tamiflu-resistant virus [1]: void of activity
